Data reported in paper PMC10718076, “1,2-Disubstituted bicyclo[2.1.1]hexanes as saturated bioisosteres of ortho-substituted benzene” (Chemical Science, 2023).
Values after ≈ are worked out from the molar mass of the structure shown. Where two headings read alike, the source gives them in different places.

Tests used:
[1] = system: Aspergillus niger (strain VURV-F 822); experiment: Antifungal disk diffusion method; type: cell-based; conditions: for zone of inhibition at 4 µg/mL: Concentration 0.004 mg/mL, Boscalid, Bixafen marked st; for zone of inhibition at 4 µg/mL / zone of inhibition at 8 µg/mL / zone of inhibition at 16 µg/mL / zone of inhibition at 30 µg/mL / zone of inhibition at 60 µg/mL: 0 = absence of antifungal activity; for zone of inhibition at 4 µg/mL / zone of inhibition at 60 µg/mL: Fluxapyroxad; for zone of inhibition at 4 µg/mL / zone of inhibition at 8 µg/mL / zone of inhibition at 16 µg/mL / zone of inhibition at 30 µg/mL / zone of inhibition at 60 µg/mL / zone of inhibition at 120 µg/mL / zone of inhibition at 250 µg/mL / zone of inhibition at 500 µg/mL / zone of inhibition at 1000 µg/mL / zone of inhibition at 2000 µg/mL: read-out: Diameter of inhibition zone; for zone of inhibition at 8 µg/mL: Concentration 0.008 mg/mL; for zone of inhibition at 16 µg/mL: Concentration 0.016 mg/mL; for zone of inhibition at 30 µg/mL: Concentration 0.03 mg/mL; for zone of inhibition at 30 µg/mL / zone of inhibition at 60 µg/mL: (±)-29 marked st; for zone of inhibition at 60 µg/mL: Concentration 0.06 mg/mL, Bixafen; for zone of inhibition at 120 µg/mL: Concentration 0.12 mg/mL, (±)-28 marked st (static growth); for zone of inhibition at 250 µg/mL: Concentration 0.25 mg/mL, (±)-28 marked st (static growth, secondary growth of mycelium); for zone of inhibition at 500 µg/mL: Concentration 0.5 mg/mL; for zone of inhibition at 500 µg/mL / zone of inhibition at 1000 µg/mL / zone of inhibition at 2000 µg/mL: 10 μl per disk; for zone of inhibition at 1000 µg/mL: Concentration 1 mg/mL; for zone of inhibition at 2000 µg/mL: Concentration 2 mg/mL
Experimental: Antifungal activity of the synthetic compounds using disk diffusion methods The compounds were tested for plant pathogens Aspergillus niger (strain VURV-F 822), which was received from Culture collection of microorganisms of Crop Research Institute (Prague, Czech […]
The synthetic compounds' antifungal activity was evaluated using a disk diffusion assay for testing filamentous fungi (CLSI M51-A) and broth microdilution antifungal susceptibility testing (EUCAST E.DEF 7.3.1; CLSI M38-A2)
[CLSI M51-A. Method for Antifungal Disk Diffusion Susceptibility Testing of Nondermatophyte Filamentous Fungi; Approved Guideline.CLSI document M51-A. Wayne, PA:
Clinical and Laboratory Standards Institute; 2010. This method is standardized for Altenaria, Aspergillus, Bipolaris, Fusarium, order Mucorales, etc.]
[CLSI M38-A2. 2008. Reference method for broth dilution antifungal susceptibility testing of filamentous fungi, 2nd ed Approved standard M38 -A2 Clinical and Laboratory Standards Institute, […]
Antifungal disk diffusion method
The solutions of fungicides and their analogues were diluted in dimethyl sulfoxide (DMSO) to […]
mg/mL for each test component. Sterile paper disks (ASPECT, Ukraine) were soaked with 10 μl of a solution of the appropriate fungicide from the highest concentration to the lowest.
The fungal strains were cultured on Petri dishes with Saburo dextrose agar (Condalab, Spain) and incubated at 25 °C for 5 days. Sterile Dulbecco's phosphate -buffered saline (DPBS) with 0,1 % Tween 20 was used to cover colonies of fungus for obtained conidia l suspension. Suspension of conidia was adjusted to inoculums 2×10^5 conidia/mL by sterile DPBS.
For antifungal disk diffusion test we used square Petri dishes (FALCON A Corning Brand, USA). The conidial suspension (0.5 mL) was added to Petri dishes with Saburo dextrose agar. The suspension was evenly distributed over the surface of the nutrient medium with a glass spatula.
After the surface of the inoculated medium was dry, the disks with different concentrations of testing compounds were added to the Petri dishes. Each compound was tested in triplicate at different concentrations. Growth control was a disk with 10 μl of DMSO, which was used for test […]
Petri dishes incubated at 25 °C for 72 h. The test compounds at known concentrati on into contact with an inoculated medium then exert a growth-inhibiting effect then a clear zone (the zone of […]
inhibition) appears around the test product. The diameter of a clear zone around the well is […]
If the fungal strain is susceptible to the antifungal agent, then a zone of inhibition appears on the agar plate. If it is resistant to the test compound, then no zone is evident. The size of the zone of inhibition is usually related to the level of antifungal activity present in the compound – a larger […]
The growth rate of all strains for each concentration of test compounds was determined visually and compared with the growth of control.
Broth microdilution antifungal susceptibility testing
A 96-well CELLSTAR plate (sterile, flat-bottomed, polystyrene, transparent) was used to determine MIC by broth microdilution method. Also, dabble straight RPMI-1640 medium with 2% glucose (2x RPMI 2%G) was used for this method. Spore suspension for plate inoculation was prepared according to the method described above for the disc diffusion method.
The each well in the plate contained 49 μl of medium (2x RPMI 2%G), 50 μl of inoculum (prepared in DPBS) and 1 μl of the stock solution of the test substance. Positive control wells contained 50 μl medium and 50 μl inoculum, and sterile control wells contained 50 μl medium and […]
To determine the MIC by the microdilution method, a series of stock solutions of fungicides and their analogues in DMSO with the following concentrations were prepared: 3.2 mg/mL, 1.6 mg/mL, […]
1 μl of the stock solutions of the test substances were added to each well to obtain the following […]
Immediately after adding all the components to the plates, the optical density was measured at […]

[2] = Kinetic solubility in phosphate-buffered saline, pH 7.4; type: physicochemical; conditions: 25 °C, kinetic from dmso stock, phosphate-buffered saline; for solubility kinetic at 2 h: aqueous buffer, pH 7.4, read-out: Sol.: experimental kinetic solubility; for solubility at 2 h: pH 7.4, aqueous buffer
Experimental: Analysis of Aqueous Solubility […]
compound (Ondansetron) were assessed for kinetic solubility in phosphate -buffered saline, pH 7.4.
Phosphate buffered saline, pH 7.4 (Sigma -Aldrich, USA; Cat #P3813) […]
MultiScreen HTS 96 Well Filter Plates (Millipore, Ireland; Cat # MSSLBPC10) […]
Matrix Multichannel Electronic Pipette 2-125 μL, 5-250 μL, 15-1250 μL (Thermo Scientific, USA; […]
Vacuum pump (Millipore, USA; Model # XX5500000)
The measurements were performed using SpectraMax Plus reader in UV -Vis mode. Acquisition and […]
The measurements were performed using SpectraMax Paradigm reader in UV-Vis mode.
Acquisition and analysis of the data were performed using SoftMax Pro v.5.4 (Molecular Devices) […]
Kinetic solubility assay was performed according to the Enamine’s aqueous solubility SOP. Briefly, using a 20 mM stock solution of the compound in 100% DMSO dilutions were prepared to a theoretical concentration of 400 μM in duplicates in phosphate-buffered saline pH 7.4 […]
compound dilutions in PBS were further allowed to equilibrate at 25 °C on a thermostatic shaker for two hours and then filtered through HTS filter plates using a vacuum manifold. The filtrates of test compounds were diluted 2-fold with acetonitrile with 2% DMSO before measuring.
In parallel, compound dilutions in 50% acetonitrile/PBS were prepared to theoretical concentrations […]
calibration curves. Ondansetron was used as reference compound to control proper assay performance. 200 μl of each sample was transferred to 96-well plate and measured in 230-550 nm range with 5 nm step. The effective range of this assay is approximately 2-400 μM and the […]
The concentrations of compounds in PBS filtrate are calculated using a dedicated Microsoft Excel calculation script. Proper absorbance wavelengths for calculations are selected for each compound manually based on absorbance maximums (absolute absorbance unit values for the minimum and maximum concentration points within the 0 – 3 OD range). Each final dataset is visually evaluated by the operator, and goodness of fit (R2) is calculated for each calibration curve. […]
samples were diluted 2-fold with acetonitrile containing internal standard and were analyzed using the HPLC system coupled with a tandem mass spectrometer. The effective range of this assay is […]

[3] = Metabolic stability in human liver microsomes; conditions: both; for microsomal CLint at 2 μM: pH 7.4; for remaining at 40 min, 2 µM: Mean of 2, 40 min; for remaining at 25 min, 2 µM: Mean of 2, 25 min
[4] = Table S5, injection 1, octanol/PBS pH 7.4
[5] = Table S5, injection 2, octanol/PBS pH 7.4
[6] = Table S5, injection 3, octanol/PBS pH 7.4
[7] = human liver microsomes (pooled)
[8] = human liver microsomes (pooled), pH 7.4, % Remaining, Table S9, 4st batch
[9] = liver microsomes (pooled), pH 7.4, % Remaining, Table S6, 1st batch

SMILES | zone of inhibition at 4 µg/mL [1] | zone of inhibition at 8 µg/mL [1] | zone of inhibition at 16 µg/mL [1] | zone of inhibition at 30 µg/mL [1] | zone of inhibition at 60 µg/mL [1] | zone of inhibition at 120 µg/mL [1] | zone of inhibition at 250 µg/mL [1] | zone of inhibition at 500 µg/mL [1] | zone of inhibition at 1000 µg/mL [1] | zone of inhibition at 2000 µg/mL [1] | D [4] | D [5] | D [6] | solubility kinetic at 2 h [2] | microsomal CLint at 2 μM [3, 7] | also measured
Cn1cc(C(=O)Nc2ccc(F)cc2-c2ccc(Cl)c(Cl)c2)c(C(F)F)n1 [Bixafen, bixafen] | 9 ± 2 mm | 15.8 ± 1.25 mm | 14.5 ± 1 mm | 20.2 ± 2.25 mm | 20.5 ± 1.75 mm | 27 ± 1 mm | 32 ± 2.5 mm | 32.8 ± 1.75 mm | 35.2 ± 1.4 mm | 38 ± 1 mm | 1.23E+04 | 1.53E+04 | 2.30E+04 | 30 µM (≈ 12.4 µg/mL) | ~10 µL/min/mg | MIC ([1]; disk diffusion, small zones of inhibition with secondary mycelial growth, read-out: minimum inhibitory concentration): 4 µg/mL (≈ 9.66 µM); solubility at 2 h ([2]; Table S4, 4nd batch, read-out: PBS solubility, pH 7.4, Incubation 1): 29 µM (≈ 12 µg/mL); solubility at 2 h ([2]; Table S4, 4nd batch, read-out: PBS solubility, pH 7.4, Incubation 2): 31 µM (≈ 12.8 µg/mL); solubility at 2 h ([2]; Table S4, 4nd batch, read-out: PBS solubility, pH 7.4, Mean): 30 µM (≈ 12.4 µg/mL); remaining at 40 min, 2 µM ([3]; human liver microsomes (pooled), pH 7.4, % Remaining without cofactor, no NADPH cofactor, Table S9, 4st batch): 101%; remaining at […], 2 µM ([3]; human liver microsomes (pooled), pH 7.4, % Remaining, Mean of 2, 7 min, Table S9, 4st batch): 105%; remaining at […], 2 µM ([3]; human liver microsomes (pooled), pH 7.4, % Remaining, Mean of 2, 15 min, Table S9, 4st batch): 97%; remaining at 25 min, 2 µM [3, 8]: 93%; remaining at 40 min, 2 µM [3, 8]: 87%; k el at 2 μM ([3]; human liver microsomes (pooled), pH 7.4, kel, Table S9, 4st batch, * approximate due to high stability): ~6.67e-05 s⁻¹; half-life at 2 µM ([3]; human liver microsomes (pooled), pH 7.4, t1/2, Table S9, 4st batch, * approximate due to high stability): ~2.68 h
O=C(NC1CC2CC1(c1ccc(Cl)cc1)C2)c1cccnc1Cl (stereo not drawn) [Compound 28] | 0 mm | 0 mm | 0 mm | 0 mm | 0 mm | 9 ± 0.5 mm | 7.5 ± 0.5 mm | 10.5 ± 1.5 mm | 13.8 ± 0.88 mm | 15.5 ± 0.5 mm | 3.84E+03 | 3.81E+03 | 3.49E+03 | 35 µM (≈ 12.2 µg/mL) | 29 µL/min/mg | solubility at 2 h ([2]; Table S2, 2st batch, read-out: PBS solubility, pH 7.4, Incubation 1): 35 µM (≈ 12.2 µg/mL); solubility at 2 h ([2]; Table S2, 2st batch, read-out: PBS solubility, pH 7.4, Incubation 2): 34 µM (≈ 11.8 µg/mL); solubility at 2 h ([2]; Table S2, 2st batch, read-out: PBS solubility, pH 7.4, Mean): 35 µM (≈ 12.2 µg/mL); remaining at 40 min, 2 µM ([3]; liver microsomes (pooled), pH 7.4, % Remaining without cofactor, no NADPH cofactor, Table S6, 1st batch): 116%; remaining at […], 2 µM ([3]; liver microsomes (pooled), pH 7.4, % Remaining, Mean of 2, 7 min, Table S6, 1st batch): 88%; remaining at […], 2 µM ([3]; liver microsomes (pooled), pH 7.4, % Remaining, Mean of 2, 15 min, Table S6, 1st batch): 82%; remaining at 25 min, 2 µM [3, 9]: 72%; remaining at 40 min, 2 µM [3, 9]: 61%; k el at 2 µM ([3]; liver microsomes (pooled), pH 7.4, kel, Table S6, 1st batch): 0.0002 s⁻¹; half-life at 2 µM ([3]; liver microsomes (pooled), pH 7.4, t1/2, Table S6, 1st batch): 0.96 h
